# Results: US8722877B2, “7-deazapurine modulators of histone methyltransferase, and methods of use thereof” (Epizyme, Inc., priority 2010, dated 2014)
# Counter-ions that a name gives are not always drawn. Like-named read-outs stand apart in the source and are kept apart here.
# Tests used:
# DOT1L(1-416) = DOT1L(1-416) (Homo sapiens (Human), UniProt Q8TEK3); test: Determination of IC50, DOT1L biochemical assay
# MOLM-13 cells = test: Cell growth and viability / proliferation, MOLM-13 cells; type: cell-based, human
# [1] = tested on: H3K79 methylation in MOLM-13 cells; test: Cellular H3K79 methylation analysis (histone immunoblot) in MOLM-13 cells; type: cell-based, human
# MV4-11 cells [2] = test: Cell cycle and apoptosis by flow cytometry (DNA content, Annexin V), MV4-11 cells; conditions: 3 μM, after day four over the next six days
# TBP = test: Housekeeping gene TBP transcript levels
# Jurkat cells = test: Proliferation assay, Jurkat cells; type: cell-based, human; conditions: 3 μM, several days
# [3] = tested on: MLL-rearranged human leukemia cell lines; test: Proliferation IC50 in panel of MLL-rearranged leukemia cell lines; type: cell-based; conditions: six MLL-rearranged cell lines (FIG. 6)
# MV4-11 cells [4] = test: Proliferation assay, MV4-11 cells; type: cell-based, human; conditions: 3 μM, several days
# MEIS1 = MEIS1 transcript levels by quantitative real-time PCR; conditions: for IC50: read-out: decrease of MEIS1 transcript, IC50
# H3K79me2 in MV4-11 cells = test: Cellular histone methylation immunoblot in MV4-11 cells
# HOXA9 = HOXA9 transcript levels by quantitative real-time PCR; conditions: for IC50: read-out: decrease of HOXA9 transcript, IC50
# [5] = tested on: non-MLL rearranged human leukemia cell lines; test: Proliferation IC50 in panel of non-MLL-rearranged leukemia cell lines; type: cell-based; conditions: six non-MLL rearranged cell lines (FIG. 6), read-out: IC50 for inhibition of proliferation
# H3K79me2 in Jurkat cells = test: Cellular H3K79me2 immunoblot in Jurkat cells; conditions: Jurkat (non-MLL-rearranged)
# CD14 = test: Cell surface expression of differentiation marker CD14 by flow cytometry, MOLM-13 cells; conditions: 3 μM
# [6] = MV4-11 cells, 3 μM, time course
# Sequence of DOT1L(1-416) (Q8TEK3 1-416): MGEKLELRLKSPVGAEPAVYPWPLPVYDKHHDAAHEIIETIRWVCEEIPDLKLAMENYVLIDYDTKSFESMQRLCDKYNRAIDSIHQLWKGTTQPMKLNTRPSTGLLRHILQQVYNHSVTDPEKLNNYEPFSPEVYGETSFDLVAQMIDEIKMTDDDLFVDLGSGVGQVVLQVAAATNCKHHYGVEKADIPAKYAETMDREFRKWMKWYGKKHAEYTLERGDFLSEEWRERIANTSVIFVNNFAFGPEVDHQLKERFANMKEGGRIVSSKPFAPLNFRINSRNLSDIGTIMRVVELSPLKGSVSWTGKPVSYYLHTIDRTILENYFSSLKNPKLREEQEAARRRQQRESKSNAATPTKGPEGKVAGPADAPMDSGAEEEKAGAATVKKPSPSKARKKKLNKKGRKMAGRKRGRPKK
smiles,measurement,setting,value
CC(C)(C)c1ccc(NC(=O)NCCCNC[C@H]2O[C@@H](n3ccc4c(N)ncnc43)[C@H](O)[C@@H]2O)cc1 [Compound 20],IC50,DOT1L(1-416),< 1000 nM
"CC(C)N(CCCCc1nc2cc(C(C)(C)C)ccc2[nH]1)C[C@H]1O[C@@H](n2ccc3c(N)ncnc32)[C@H](O)[C@@H]1O [Compound 18, (2R,3R,4S,5R)-2-(4-amino-7H-pyrrolo[2,3-d]pyrimidin-7-yl)-5-(((4-(5-(tert-butyl)-1H-benzo[d]imidazol-2-yl)butyl)(isopropyl)amino)methyl)tetrahydrofuran-3,4-diol]",IC50,DOT1L(1-416),< 10 nM
"CC(C)N(CCCNC(=O)Nc1ccc(C(C)(C)C)cc1)C[C@H]1O[C@@H](n2ccc3c(N)ncnc32)[C@H](O)[C@@H]1O [Compound 17, 1-(3-((((2R,3S,4R,5R)-5-(4-amino-7H-pyrrolo[2,3-d]pyrimidin-7-yl)-3,4-dihydroxytetrahydrofuran-2-yl)methyl)(isopropyl)amino)propyl)-3-(4-(tert-butyl)phenyl)urea hydrochloride]",IC50,"MOLM-13 cells; Homo sapiens, MOLM-13, read-out: Proliferation IC50 MOLM-13 cells",3200 nM
same,IC50,"[1]; Homo sapiens, MOLM-13, read-out: H3K79 IC50 MOLM-13 cells",59 nM
CC(=O)N(CCCNC(=O)Nc1ccc(C(C)(C)C)cc1)C[C@H]1O[C@@H](n2ccc3c(N)ncnc32)[C@H](O)[C@@H]1O [Compound 21],IC50,DOT1L(1-416),< 1000 nM
"CC(C)N(CCCNC(=O)Nc1ccc(C(C)(C)C)cc1)C[C@H]1O[C@@H](n2ccc3c(N)ncnc32)[C@H](O)[C@@H]1O [Compound 16, 1-(3-((((2R,3S,4R,5R)-5-(4-amino-7H-pyrrolo[2,3-d]pyrimidin-7-yl)-3,4-dihydroxytetrahydrofuran-2-yl)methyl)(isopropyl)amino)propyl)-3-(4-(tert-butyl)phenyl)urea]",cell cycle and apoptosis,MV4-11 cells [2],increase in sub-G1 and Annexin-positive cells
same,transcript levels of the housekeeping gene TBP,TBP,unaffected
same,growth of cells,Jurkat cells,unaffected
same,number of viable cells,"MOLM-13 cells; MOLM-13 cells, 3 μM, several days",dramatically reduced
same,mode of binding to the enzyme (steady state kinetic analysis),DOT1L(1-416); versus SAM,binds to the enzyme competitively with SAM
same,IC50 for inhibition of proliferation,[3],nanomolar to low micromolar range
same,number of viable cells,MV4-11 cells [4],dramatically reduced
same,estimated half-life for MEIS1 inhibition,"MEIS1; 3 μM, mRNA over time",79.2 h
same,IC50,MEIS1; MOLM-13 cells,~700 nM
same,IC50,MEIS1; MV4-11 cells,~700 nM
same,global H3K79me2 levels,"H3K79me2 in MV4-11 cells; MV4-11 (MLL-AF4), immunoblot",concentration dependent reduction
same,methyl marks affected (panel of methyl-lysine and methyl-arginine specific antibodies),H3K79me2 in MV4-11 cells; MV4-11 cells,only methyl marks affected by compound 16 treatment were H3K79me1 and H3K79me2
same,H3K79me2 levels within one day of treatment,H3K79me2 in MV4-11 cells; [6],modest reduction
same,time to full depletion of H3K79me2,H3K79me2 in MV4-11 cells; [6],four to five
same,estimated half-life for HOXA9 inhibition,"HOXA9; 3 μM, mRNA over time",55.2 h
same,IC50,HOXA9; MOLM-13 cells,~700 nM
same,IC50,HOXA9; MV4-11 cells,~700 nM
same,IC50,[5],> 10000 nM
same,global H3K79me2 levels,"[1]; MOLM-13 (MLL-AF9), immunoblot",concentration dependent reduction
same,global H3K79me2 levels,H3K79me2 in Jurkat cells,concentration dependent reduction
same,expression of CD14,CD14,induced following 12 days
"CN(CCCNC(=O)Nc1ccc(C(C)(C)C)cc1)CC1O[C@@H](n2ccc3c(N)ncnc32)[C@H](O)[C@@H]1O (stereo partly shown) [Compound 9, hydrochloride]",IC50,"MOLM-13 cells; MOLM-13 cells, read-out: Proliferation IC50 MOLM-13 cells",17300 nM
same,IC50,"[1]; MOLM-13 cells, read-out: H3K79 IC50 MOLM-13 cells",77 nM
